Consider two molecules from PMC5454592, “Pharmacological and Toxicological Properties of the Potent Oral γ-Secretase Modulator BPN-15606” (The Journal of Pharmacology and Experimental Therapeutics, 2017).

The structures appear in SMILES notation.

Details of series [1]: method as in Soares et al., 2016; Toyn et al., 2016. To be noted: ref Soares et al., 2016, Toyn et al.; cited from earlier work.
Series [2] has as its system Notch proteolysis by γ-secretase. In words: Notch assay (Myc-tagged Notch NΔE in H4-APP751 neuroglioma cells). The series is classed as cell-based. The note with it: H4-APP751 neuroglioma cells transfected with Myc-tagged Notch (NΔE) construct; Fig. 3. As for the experimental part:
Notch assays were carried out as described previously ([Wagner et al., 2014]).

As to `CNc1nc(Nc2ccc(-n3cnc(C)n3)c(OC)c2)nc2c1CC[C@H]2c1ccc(F)cc1` [BMS-932481], the “hepatic safety in repeated oral dosing studies in humans” value in series [1] is reported as “transient elevations in plasma concentrations of enzymes associated with hepatic toxicity”. Take `C[C@H](NC(=O)Cc1cc(F)cc(F)c1)C(=O)N[C@H](C(=O)OC(C)(C)C)c1ccccc1` [N-[N-(3,5-difluorophenacetyl)-L-alanyl]-S-phenylglycine t-butyl ester, reference compound]: the Notch proteolysis result in series [2] is on record as “potently inhibits Notch proteolysis”.
